Assay results published in patent US11241455B2, “Methods of treating disease by metabolic control of T-cell differentiation” (The J. David Gladstone Institutes, a testamentary trust …, priority 2016, dated 2022).

How the values were obtained:
Type in all cases: cell-based, mouse
[1] = test system: differentiating TH17 cells; assay: 15N-α-glutamine flux analysis (transamination) in differentiating TH17 cells
Procedure: (§1) CD4 naïve T cells, differentiating TH17 or iTreg cells (68 hours) were incubated with fresh media prior to labeling. The cells were then cultured for 4 hours at 37° C. with medium where the glutamine was replaced with the corresponding stable isotope label: 2 mM U-^13C glutamine or 2 mM ^15N-α-glutamine for 4 hours at 37° C. The cells were quickly collected and quickly washed with phosphate buffer saline (PBS), pelleted, and snap frozen in liquid nitrogen. The frozen samples were kept in −80° C. until extraction. Cell extracts were prepared by first adding 80/20 MeOH/H2O at −60° C. to the frozen pellets and collecting the supernatant after centrifugation at 4° C. The extracted samples were analyzed by high-resolution liquid-chromatography-mass spectrometry. Unlabeled glutamine-fed cells were used as background.
(§2) For amino acid profiling: The ultra-high pressure liquid chromatography (U-HPLC) system consisted of a Thermo Fisher Scientific (San Jose, USA) U-HPLC pumping system, coupled to an autosampler and degasser. Chromatographic separation of the intracellular metabolites was achieved by usage of a reversed phase Atlantis® T3 (3 μm, 2.1 mm ID×150 mm) column (Waters, Eschborn, Germany) and by implementation of a gradient elution program. […]

[2] = test system: differentiating iTreg cells; assay: 15N-α-glutamine flux analysis (transamination) in differentiating iTreg cells
Procedure: as §1, §2

[3] = test system: differentiating TH17 cells; assay: Intracellular metabolite profiling by LC/MS in differentiating TH17 cells
Procedure: CD4 naïve T cells, differentiating TH17 cells (day 2.5), and differentiating iTreg cells (day 2.5) were obtained as described above. A solution of 80/20 methanol (MeOH)/H2O was used to extract intracellular metabolites. The extracted samples were analyzed with liquid chromatography (LC)/mass spectrometry (MS) metabolomics. 200 ng/mL of extraction standard (L-Glutamic acid-^13C5-^15N-d5) was added into samples, and the peak value for each metabolite was normalized to extraction standard. The data was transformed into Log 2 and clustered. Cell extracts obtained as described above were analyzed for relative abundance of ^13C and ^15N metabolites by liquid chromatography-triple quadrupole mass spectrometry (LC-MS) using scheduled selective reaction monitoring (SRM) for each metabolite of interest, with the detector set to negative mode. Quantitation of intracellular 2-hydroxyglutarate (2HG) was conducted as described previously (Kernesky et al., Blood 2015, 125(2) 296-303).

[4] = test system: differentiating iTreg cells; assay: U-13C glutamine flux analysis in differentiating iTreg cells; settings: 2 mM U-13C-glutamine for 4 hours
Procedure: as §1, with “background. For negative mode metabolomics: Cell extracts obtained as described above were analyzed for relative abundance of metabolites by liquid chromatography-triple quadrupole mass spectrometry (LC-MS) using scheduled selective reaction monitoring (SRM) for each metabolite of interest, with the detector set to negative mode. Prior to injection, dried extracts were reconstituted in LC-MS grade water. LC separation was achieved by reverse-phase ion-pairing chromatography.” for “background.”

[5] = test system: FOXP3 promoter and its intronic CpG island; assay: Methylation analysis by bisulfite sequencing, T cells under TH17 condition; settings: 0.5 mM dimethyl R-2-HG (day 4) or AOA (day 6), male mice
Procedure: The method is essentially the same as described previously (Kim, et al. J Exp Med 204 (7), 1543-1551 (2007)). Briefly, genomic DNA was purified with Blood & Cell Culture DNA Midi Kit (Qiagen). Bisufite conversion of genomic DNA was performed using Epitect® bisulfite kit (Qiagen), according to the manufacture's instruction. The PCR product was run on 2% agarose, purified and cloned using TOPO® TA Cloning® Kit with PCR®4. Clones are picked for Sanger sequencing.

[6] = differentiating TH17 cells, day 2.5, 0.5 mM AOA

NOCC(=O)O [AOA, (aminooxy)-acetic acid]
reduction of total intracellular 15N-α-aspartate ([1]; differentiating TH17 cells fed 2 mM 15N-α-glutamine for 4 hours): 90% | de novo synthesis for several amino acids (15N label incorporation) ([1]; differentiating TH17 cells, 2 mM 15N-α-glutamine for 4 hours): significant decreases | reduction of total intracellular 15N-α-aspartate ([2]; differentiating iTreg cells fed 2 mM 15N-α-glutamine for 4 hours): 75% | de novo synthesis for several amino acids (15N label incorporation) ([2]; differentiating iTreg cells, 2 mM 15N-α-glutamine for 4 hours): significant decreases | abundance of TCA cycle intermediates (α-KG, succinate, fumarate, malate, citrate) [3, 6]: reduced partially | level of glutamate [3, 6]: slightly higher | reduction of steady-state levels of 2-HG [3, 6]: 75% | level of glutathione, oxidized glutathione, or L-asparate ([3]; re-plotted from FIG. 2a: differentiating TH17 or iTreg cells (day 2.5), absence or presence of AOA): does not affect | de novo synthesis of α-KG and 2-HG (U-13C labeled, normalized to U-13C-glutamine) [4]: inhibited | methylation level of FOXP3 promoter and its intronic CpG island [5]: dramatically decreased the methylation levels
